Reference: patent US20260085067A1, “CYCLIC SULFONAMIDE RIBONUCLEOTIDE REDUCTASE (RNR) INHIBITORS AND USES THEREOF” (Boundless Bio, Inc., priority 2022, published 2026)

These compounds were tested against T1, RNR (RNR1:RNR2 1:1) (Homo sapiens, UniProt P23921) (assay: RNR enzyme activity, rapid-fire mass spectrometry (RF/MS) assay). Conditions: [RNR] 50 nM, 1:1 RNR1:RNR2; CDP 5 μM; ATP 1 mM; 37° C., 45 min; compounds screened up to 50 μM.
T1 sequence (P23921 1-792): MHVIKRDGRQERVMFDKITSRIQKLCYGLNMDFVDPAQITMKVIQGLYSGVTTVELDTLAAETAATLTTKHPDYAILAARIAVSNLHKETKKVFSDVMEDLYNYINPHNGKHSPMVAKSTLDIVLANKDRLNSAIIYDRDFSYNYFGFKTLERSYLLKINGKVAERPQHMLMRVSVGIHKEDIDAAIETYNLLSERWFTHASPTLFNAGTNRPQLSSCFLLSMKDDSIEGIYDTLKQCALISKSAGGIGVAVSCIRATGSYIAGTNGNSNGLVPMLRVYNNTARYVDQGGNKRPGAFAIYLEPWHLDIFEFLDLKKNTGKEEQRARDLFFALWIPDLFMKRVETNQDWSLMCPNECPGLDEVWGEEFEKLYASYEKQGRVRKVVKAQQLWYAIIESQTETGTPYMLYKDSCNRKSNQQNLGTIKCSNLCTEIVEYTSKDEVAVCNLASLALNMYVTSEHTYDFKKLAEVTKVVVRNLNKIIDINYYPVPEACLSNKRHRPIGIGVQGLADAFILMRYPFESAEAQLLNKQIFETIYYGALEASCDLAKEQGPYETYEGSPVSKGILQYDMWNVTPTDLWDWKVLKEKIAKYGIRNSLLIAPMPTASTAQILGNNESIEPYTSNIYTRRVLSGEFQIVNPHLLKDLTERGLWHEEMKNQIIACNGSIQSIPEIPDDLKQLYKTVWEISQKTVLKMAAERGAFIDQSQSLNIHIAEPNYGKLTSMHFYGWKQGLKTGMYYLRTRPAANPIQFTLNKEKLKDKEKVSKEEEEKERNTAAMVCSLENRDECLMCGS
Type: biochemical
Method: A rapid-fire mass spectrometry (RF/MS) assay was used to assess RNR enzyme activity using a 384 well plate and a robotic platform.
The plate layout included two validated reference compounds (Triapine (3-AP) and Hydroxyurea (HU)): • A dose response in duplicate; top concentration: 5 μM (3-AP) and 250 μM (HU), semi-log dilutions. • Spike wells in triplicate randomly spotted at four concentrations: • 250 μM, 100 μM, 30 μM and 2 μM for HU • 5 μM, 2 μM, 0.6 μM and 0.04 μM for 3-AP
First, the multidrop pipes were saturated for 30 minutes with enzymatic solution. Then 30 μL of Stop solution was distributed in column 24. Next, 15 μL of enzyme was distributed in column 1 to 24. Next, a pre-incubation step of 15 minutes at room temperature occurred, followed by distribution of 15 μL of substrate solution (column 1 to 24). Next, the plate was incubated for 45 minutes at 37° C. 30 μL of Stop solution was then distributed to columns 1 to 23.
The final parameters for the enzyme reactions were: • Incubation: 37° C., 45 min • [CDP]: 5 μM; [ATP]: 1 mM; [NADPH]: No • [RNR]final: 50 nM with 1:1 (RNR1:RNR2) ratio • Final volume: 30 μL • Stop solution: 6% HCOOH in water

| SMILES | IC50 [nM] |
| --- | --- |
| Cc1ccc(F)c([C@@H](C)[C@@H](c2n[nH]c(=O)o2)N2CN([C@H]3CCN(CCF)C3)c3cc(Cl)ccc3S2(=O)=O)c1C [Example 106, 5-((1S,2R)-1-(6-chloro-4-((S)-1-(2-fluoroethyl)pyrrolidin-3-yl)-1,1-dioxido-3,4-dihydro-2H-benzo[e][1,2,4]thiadiazin-2-yl)-2-(6-fluoro-2,3-dimethylphenyl)propyl)-1,3,4-oxadiazol-2 (3H)-one] | < 20 |
| Cc1ccc(F)c([C@@H](C)[C@@H](c2n[nH]c(=O)o2)N2CN([C@@H]3CCN(CC(F)(F)F)C3)c3cc(Cl)ccc3S2(=O)=O)c1C [Example 99, 5-((1S,2R)-1-(6-chloro-1,1-dioxido-4-((R)-1-(2,2,2-trifluoroethyl)pyrrolidin-3-yl)-3,4-dihydro-2H-benzo[e][1,2,4]thiadiazin-2-yl)-2-(6-fluoro-2,3-dimethylphenyl)propyl)-1,3,4-oxadiazol-2 (3H)-one] | 20 to 100 |

Each compound was assayed on pCHK1 (S345) in Colo320 DM cells (assay: Alphalisa assay, detection of pCHK1 (S345) in Colo320 DM cells). Conditions: Homo sapiens, COLO 320DM, compound overnight (approximately 16 hours).
Type: cell-based, human
Method: Colo320 DM cells (ATCC #CCL-220, derived from human colorectal adenocarcinoma, Dukes' type C) were seeded on a […], cell culture treated assay plate at a density of 50,000 cells/well in 200 μL of RPMI-1640 media supplemented with 10% Fetal Bovine Serum and incubated at 37° C. overnight. The following day, test compound dilutions were added directly to the plated cells by a Tecan digital dispenser to a final DMSO concentration of <0.5%. and incubated at 37° C. overnight (approximately 16 hours). The following day all cell culture media was removed from the cells. 75 μL of 1×AlphaLisa lysis buffer was added to each well and plates were agitated on a shaker for 30 minutes at room temperature. The lysis of cells and detection of pCHK1 (S345) were performed with reagents contained within the AlphaLisa Sure Fire assay kit (Perkin Elmer #ALSU-PCHK1-A) according to the manufacturer's instructions. 10 μL of each lysate was then transferred to a white, 384-well assay plate (Perkin Elmer #6008280). 5 μL of Acceptor mix was then added to each well of lysate in the white, 384-well assay plate and incubated in the dark at room temperature for 60 minutes. 5 μL of Donor mix was then added to each well of the white, 384-well assay plate in subdued light and incubated at room temperature for 60 minutes. Plates were read on an Alpha Technology-compatible plate reader using standard AlphaLisa settings.

| SMILES | IC50 [µM] |
| --- | --- |
| Cc1ccc(F)c([C@@H](C)[C@@H](c2n[nH]c(=O)o2)N2CN([C@H]3C[C@@H](O)C3)c3cc(Cl)ccc3S2(=O)=O)c1C [Example 112, 5-((1S,2R)-1-(6-chloro-4-((1s,3R)-3-hydroxycyclobutyl)-1,1-dioxido-3,4-dihydro-2H-benzo[e][1,2,4]thiadiazin-2-yl)-2-(6-fluoro-2,3-dimethylphenyl)propyl)-1,3,4-oxadiazol-2 (3H)-one] | ≤ 1 |
| Cc1ccc(F)c([C@@H](C)[C@@H](c2n[nH]c(=O)o2)N2CN([C@H]3CCN(CCF)C3)c3cc(Cl)ccc3S2(=O)=O)c1C [Example 106, 5-((1S,2R)-1-(6-chloro-4-((S)-1-(2-fluoroethyl)pyrrolidin-3-yl)-1,1-dioxido-3,4-dihydro-2H-benzo[e][1,2,4]thiadiazin-2-yl)-2-(6-fluoro-2,3-dimethylphenyl)propyl)-1,3,4-oxadiazol-2 (3H)-one] | ≤ 1 |
| Cc1ccc(F)c([C@@H](C)[C@@H](c2n[nH]c(=O)o2)N2CN([C@@H]3CCN(CC(F)(F)F)C3)c3cc(Cl)ccc3S2(=O)=O)c1C [Example 99, 5-((1S,2R)-1-(6-chloro-1,1-dioxido-4-((R)-1-(2,2,2-trifluoroethyl)pyrrolidin-3-yl)-3,4-dihydro-2H-benzo[e][1,2,4]thiadiazin-2-yl)-2-(6-fluoro-2,3-dimethylphenyl)propyl)-1,3,4-oxadiazol-2 (3H)-one] | ≤ 1 |
| CC(=O)c1cc(Cl)cc2c1S(=O)(=O)N([C@H](c1n[nH]c(=O)o1)[C@@H](C)c1c(F)ccc(C)c1C)CN2C1CC1 [Example 94, 5-((1S,2S)-1-(8-acetyl-6-chloro-4-cyclopropyl-1,1-dioxido-3,4-dihydro-2H-benzo[e][1,2,4]thiadiazin-2-yl)-2-(6-fluoro-2,3-dimethylphenyl)propyl)-1,3,4-oxadiazol-2 (3H)-one] | 1 to 5 |
| CNCCN1CN([C@H](c2n[nH]c(=O)o2)[C@H](C)c2c(F)ccc(C)c2C)S(=O)(=O)c2ccc(Cl)cc21 [Example 115, 5-((1S,2R)-1-(6-chloro-4-(2-(methylamino)ethyl)-1,1-dioxido-3,4-dihydro-2H-benzo[e][1,2,4]thiadiazin-2-yl)-2-(6-fluoro-2,3-dimethylphenyl)propyl)-1,3,4-oxadiazol-2 (3H)-one] | 5 to 10 |
| Cc1ccc(F)c([C@@H](C)[C@@H](c2n[nH]c(=O)o2)N2CN(CCF)c3cc(Cl)ccc3S2(=O)=O)c1C [Example 108, 5-((1S,2R)-1-(6-chloro-4-(2-fluoroethyl)-1,1-dioxido-3,4-dihydro-2H-benzo[e][1,2,4]thiadiazin-2-yl)-2-(6-fluoro-2,3-dimethylphenyl)propyl)-1,3,4-oxadiazol-2 (3H)-one] | ≤ 1 |
| Cc1ccc(F)c([C@@H](C)[C@@H](c2n[nH]c(=O)o2)N2CN(CC(C)(C)O)c3cc(Cl)ccc3S2(=O)=O)c1C [Example 91, 5-((1S,2R)-1-(6-chloro-4-(2-hydroxy-2-methylpropyl)-1,1-dioxido-3,4-dihydro-2H-benzo[e][1,2,4]thiadiazin-2-yl)-2-(6-fluoro-2,3-dimethylphenyl)propyl)-1,3,4-oxadiazol-2 (3H)-one] | ≤ 1 |
| CC(=O)c1cc(Cl)cc2c1S(=O)(=O)N([C@H](c1n[nH]c(=O)o1)[C@H](C)c1c(F)ccc(C)c1C)CN2CCO [Example 110, 5-((1S,2R)-1-(8-acetyl-6-chloro-4-(2-hydroxyethyl)-1,1-dioxido-3,4-dihydro-2H-benzo[e][1,2,4]thiadiazin-2-yl)-2-(6-fluoro-2,3-dimethylphenyl)propyl)-1,3,4-oxadiazol-2 (3H)-one] | ≤ 1 |
| Cc1ccc(F)c([C@@H](C)[C@@H](c2n[nH]c(=O)o2)N2C(C)N(C)c3cc(Cl)ccc3S2(=O)=O)c1C (stereo partly drawn) [Example 11, 5-((1S,2R)-1-(6-chloro-3,4-dimethyl-1,1-dioxido-3,4-dihydro-2H-benzo[e][1,2,4]thiadiazin-2-yl)-2-(6-fluoro-2,3-dimethylphenyl)propyl)-1,3,4-oxadiazol-2 (3H)-one] | 10 to 50 |
| CC(=O)c1cc(Cl)cc2c1S(=O)(=O)N([C@H](c1n[nH]c(=O)o1)[C@H](C)c1c(F)ccc(C)c1C)CC(=O)N2 [Example 119, 5-((1S,2R)-1-(9-acetyl-7-chloro-1,1-dioxido-4-oxo-4,5-dihydrobenzo[f][1,2,5]thiadiazepin-2 (3H)-yl)-2-(6-fluoro-2,3-dimethylphenyl)propyl)-1,3,4-oxadiazol-2 (3H)-one] | 5 to 10 |
| CC(=O)c1cc(Cl)cc2c1S(=O)(=O)N([C@H](c1n[nH]c(=O)o1)[C@H](C)c1c(F)ccc(C)c1C)CN2 [Example 109, 5-((1S,2R)-1-(8-acetyl-6-chloro-1,1-dioxido-3,4-dihydro-2H-benzo[e][1,2,4]thiadiazin-2-yl)-2-(6-fluoro-2,3-dimethylphenyl)propyl)-1,3,4-oxadiazol-2 (3H)-one] | ≤ 1 |
| Cc1ccc(F)c([C@@H](C)[C@@H](c2n[nH]c(=O)o2)N2CN(OCc3ccccc3)c3cc(Cl)ccc3S2(=O)=O)c1C [Example 114, 5-((1S,2R)-1-(4-(benzyloxy)-6-chloro-1,1-dioxido-3,4-dihydro-2H-benzo[e][1,2,4]thiadiazin-2-yl)-2-(6-fluoro-2,3-dimethylphenyl)propyl)-1,3,4-oxadiazol-2 (3H)-one] | 5 to 10 |
| Cc1ccc(F)c([C@@H](C)[C@@H](c2n[nH]c(=O)o2)N2CN(C3CN(CC(F)F)C3)c3cc(Cl)ccc3S2(=O)=O)c1C [Example 107, 5-((1S,2R)-1-(6-chloro-4-(1-(2,2-difluoroethyl)azetidin-3-yl)-1,1-dioxido-3,4-dihydro-2H-benzo[e][1,2,4]thiadiazin-2-yl)-2-(6-fluoro-2,3-dimethylphenyl)propyl)-1,3,4-oxadiazol-2 (3H)-one] | ≤ 1 |
| Cc1ccc(F)c([C@@H](C)[C@@H](c2n[nH]c(=O)o2)N2CN([C@H]3C[C@@H](N(C)C)C3)c3cc(Cl)ccc3S2(=O)=O)c1C [Example 111, 5-((1S,2R)-1-(6-chloro-4-((1s,3R)-3-(dimethylamino)cyclobutyl)-1,1-dioxido-3,4-dihydro-2H-benzo[e][1,2,4]thiadiazin-2-yl)-2-(6-fluoro-2,3-dimethylphenyl)propyl)-1,3,4-oxadiazol-2 (3H)-one] | ≤ 1 |
| Cc1ccc(F)c([C@@H](C)[C@@H](c2n[nH]c(=O)o2)N2CN(CCN)c3cc(Cl)ccc3S2(=O)=O)c1C [Example 113, 5-((1S,2R)-1-(4-(2-aminoethyl)-6-chloro-1,1-dioxido-3,4-dihydro-2H-benzo[e][1,2,4]thiadiazin-2-yl)-2-(6-fluoro-2,3-dimethylphenyl)propyl)-1,3,4-oxadiazol-2 (3H)-one] | 5 to 10 |
| Cc1ccc(F)c([C@@H](C)[C@@H](c2n[nH]c(=O)o2)N2COc3c(ccc(Cl)c3C)S2(=O)=O)c1C [Example 31, 5-((1S,2R)-1-(6-chloro-5-methyl-1,1-dioxidobenzo[e][1,4,3]oxathiazin-2 (3H)-yl)-2-(6-fluoro-2,3-dimethylphenyl)propyl)-1,3,4-oxadiazol-2 (3H)-one] | 1 to 5 |
